Laboratory results: patent publication US4812443A, “Methods for enhancing differentiation and proliferation of hematopoietic progenitor cells” (Kuraray Co., Ltd., priority 1984, dated 1989)

Assays:
mice [1] = assay: Neuropharmacological test using mice (Irwin's method); format: in vivo, mouse (ddY-strain); conditions: 150, 300 and 600 mg/kg i.p.
Description: (§1) Since the dolichol is a water-insoluble oily liquid, it was used as a solution in sesame oil in the case of oral administration, and as a suspension in a nonionic surfactant (HCO-60, a trade name for a product of Nikko Chemical Co., Ltd.) in the case of intraperitoneal administration and in an in vitro test in the following experiment.
(§2) In the following experiment, ddY-strain male mice, Wistar-strain male rats (Shizuoka Laboratory Animal Center), Japanese white male rabbits (Carely) and Hartley-strain male guinea pigs (Clea Japan Inc.) were used. The animals were kept under conditions including a temperature of 23±1° C., a humidity of 55±10%, an illuminating time (7:00 am to 9.00 pm) and 15 ventilations per hour. The mice and rats were fed with solid feeds MF (a product of Oriental Yeast Co., Ltd.) and the guinea pigs and rabbits were fed with solid feeds GM-3 and RM-1 (Funabashi Farm Co.). They were allowed to take tap water freely. The animals were preliminarily kept for more than one week, and those which were healthy in general conditions were used in the experiments.
ddY-strain male mice, 6 per group, were used, and their changes in behavior, nervous symptoms, autonomic nervous symptoms and toxic symptoms were observed, analyzed and recorded in accordance with the Irwin's method of observation. […]

[2] = test system: late erythrocytic progenitor cells (CFU-e); assay: Differentiation and proliferation of late erythrocytic progenitor cells (CFU-e), cluster colony formation; format: cell-based, mouse (BDF1-strain); conditions: 20 μg/ml, Runs 2 to 4
Protocol: The mouse bone marrow cells used in the following experiments were all prepared as follows:
BDF1 -strain mice (female, 8 to 10 weeks old) were killed by cervical dislocation, and the femurs were collected under sterile conditions. The bone marrow cells were flushed out from the femurs with α-medium, and formed into a single cell suspension by repeated aspiration with a 26-gauge needle fitted to a 1 ml-syringe. The cells were washed two times with α-medium by centrifugation at 200×G for 5 minutes and used in the following experiments.
In accordance with the method of Murphy et al. mentioned above, mouse bone marrow cells were plated at 2.5×10^4 nuclear cells into 0.5 ml of α-medium containing 0.25 unit of erythropoietin, 30% fetal bovine serum, 1% bovine serum albumin, 0.1 mM 2-mercaptoethanol and 0.4% methyl cellulose with 10 μg of dolichol dissolved in 1 μl of ethanol, 10 μg of dolichyl phosphate dispersed in 0.5 μl of dimethyl sulfoxide, 1 μl of ethanol or 0.5 μl of dimethyl sulfoxide in a 16 mm.phi. tissue culture plate, and incubated at 37° C. in a humidified atmosphere of 5% carbon dioxide in air for 2 days. The number of cluster colonies consisting of 8 to 64 erythroblasts derived from CFU-e in the tissue culture plate was scored with an inverted microscope. The experiment was carried out by 6 replica assays for each group, and the average number of the colonies formed was determined. The results are shown in Table 3, in the rows of Runs 2 to 4.

extracted atrium = assay: Peripheral action, extracted atrium of guinea pigs; set-up: species or system guinea pig (Hartley-strain); conditions: 10^-6, 10^-5 and 10^-4 g/ml; 30° C.
Description: as §1, §2
Hartley-strain male guinea pigs (350-400 g), 3 per group, were used. […] The contraction of the atria was recorded on an ink-writing oscillograph (EMP-3004, Nippon Photoelectric Co.) through an FD pick-up (TB-611T, Nippon Photoelectric Co.). […]

mice [3] = assay: Acute toxicity of dolichol in mice; format: in vivo, mouse (ddY-strain); conditions: 5,000 mg/kg orally or 1,000 mg/kg intraperitoneally
Protocol: (1) Dolichol synthesized in Referential Example 1 below was used as a solution in sesame oil in the case of oral administration, or as a suspension in HCO-60 (a trade name for a nonionic surfactant made by Nikko Chemical Co., Ltd.) in the case of intraperitoneal administration.
ddY-strain mice (21-27 g), 6 per group, were used. Dolichol was administered to the mice in a dose of 5,000 mg/kg orally, or 1,000 mg/kg intraperitoneally on the 1st day of the test, and the mice were then observed for toxic symptoms and mortality for seven days. The body weights of the mice were measured before administration and on the 1st and 7th days. Control groups were each given sesame oil or HCO-60, and observed and weighed in the same way as in the case of the groups to which dolichol was administered. On the 7th day, all the mice were dissected and visually observed.

extracted trachea = assay: Peripheral action, extracted trachea of guinea pigs; set-up: species or system guinea pig (Hartley-strain); conditions: up to 10^-4 g/ml, 37° C.
Description: as §1, §2
Hartley-strain male guinea pigs (350-400 g), 3 per group, were used. The extracted trachea was suspended in Locke-Ringer solution at 37° C. through which air was introduced. The contraction of the trachea was recorded in the same way as in the case of the extracted ileum. […]

extracted spermiduct = assay: Peripheral action, extracted spermiduct of rats; set-up: species or system rat (Wistar-strain); conditions: up to 10^-4 g/ml, 32° C.
Description: as §1, §2
Wistar-strain male rats (180 to 200 g), 3 per group, were used. The extracted spermiduct samples were suspended in Locke-Ringer solution at 32° C. The contraction of the spermiduct was recorded by the same method as in the preceding section. […]

acetic acid writhing = assay: Analgesic action in mice (acetic acid writhing method); format: in vivo, mouse (ddY-strain); conditions: 150, 300 and 600 mg/kg; one hour before acetic acid; vs control
Description: as §1, §2
ddY-strain male mice (27-30 g), 6 per group, were used. One hour after administration of dolichol to the mice, 0.6% acetic acid was intraperitoneally administered to the mice in a dose of 0.1 ml/10 g. […] The inhibitory action on acetic acid writhing was thus examined.

In the case of dolichol, the “Effect on behaviors, nervous symptoms, autonomic nervous symptoms and toxic symptoms” value (mice [1]) is reported as “no effect was observed”, the “Number of colonies formed in the dolichols-added group (CFU-e)” value ([2]; 2 days, erythropoietin 0.25 unit, mean ± S.E., 6 replicas, solvent controls 124.2 ± 2.7, 246.0 ± 5.0, 124.7 ± 2.9) is reported as 151.0 ± 2.2 and the “Percent increase (%) of colony formation (CFU-e)” value ([2]; vs solvent-added control group) is reported as “+21.6%”. For the same substance, the Chronotropic action (extracted atrium) was “nor chronotropic action”, the Inotropic action (extracted atrium) was “no inotropic” and the “Changes in body weight” value (mice [3]; 1st and 7th days, vs control) was “no sigificant difference was noted”. The Abnormality in dissection (mice [3]; 7th day) was “No abnormality was noted”, the Mortality (mice [3]; seven days) was “no case of death in all of the mice tested” and the “Antagonistic action against isoproterenol” value (extracted trachea; extracted trachea) was “nor antagonistic action”. The “Direct action on extracted trachea” value (extracted trachea) was “no direct action”, the “Antagonistic action against noradrenalin” value (extracted spermiduct; extracted spermiduct) was “nor any antagonistic action” and the “Direct action on extracted spermiduct” value (extracted spermiduct) was “no direct action”. For the same substance, the “Inhibitory action on acetic acid writhing” value (acetic acid writhing) was “no significant difference was noted”.
